# Reference: ChEMBL document CHEMBL1146888, “Synthesis and cytotoxicity of leinamycin antibiotic analogues” (J Med Chem, 2006)
# Legend:
# HeLa [1] = test: Cytotoxicity against human HeLa3 cell line by MTT assay; type: functional, cell-based
# HeLa [2] = test: Cytotoxicity against human HeLa3 cell line in presence of ethanethiol by MTT assay; type: functional, cell-based
Compound,IC50 (HeLa [1]) [µM],IC50 (HeLa [2]) [µM]
O=C1CC([C@H]2O[C@@H](n3ccc(=O)[nH]c3=O)[C@H](O)[C@@H]2O)SS1 (stereo partly drawn),62.2,20.7
Cc1cn([C@H]2C[C@H](O[Si](C)(C)C(C)(C)C)[C@@H](C3CC(=O)S[S+]3[O-])O2)c(=O)[nH]c1=O (stereo partly drawn),43.1,6.61
O=C1CC(CCc2ccccc2)SS1 (stereo not drawn),258,65.5
CC(C)(C)[Si](C)(C)O[C@@H]1[C@H](O[Si](C)(C)C(C)(C)C)[C@@H](C2CC(=O)SS2)O[C@H]1n1ccc(=O)[nH]c1=O (stereo partly drawn),10,7.84
CC1(C)O[C@H]([C@H]2COC(C)(C)O2)[C@@H](C2CC(=O)SS2)O1 (stereo partly drawn),35.9,16.9
"COc1cccc2c1C(=O)c1c(O)c3c(c(O)c1C2=O)C[C@@](O)(C(C)=O)C[C@@H]3OC1C[C@H](N)[C@H](O)[C@H](C)O1 (single isomer, unassigned) [DAUNORUBICIN]",2.96,–
O=C1CC([C@H]2O[C@@H](n3ccc(=O)[nH]c3=O)[C@H](O)[C@@H]2O)[S+]([O-])S1 (stereo partly drawn),50.7,7.01
Cc1cn([C@H]2C[C@H](O[Si](C)(C)C(C)(C)C)[C@@H](C3CC(=O)SS3)O2)c(=O)[nH]c1=O (stereo partly drawn),–,16.7
O=C1CC(CCC#CCOC2CCCCO2)SS1 (stereo not drawn),124,20.1
O=C1CC(CCC#CCOC2CCCCO2)[S+]([O-])S1 (stereo not drawn),62.9,8.33
Cc1cn([C@H]2C[C@H](O)[C@@H](C3CC(=O)SS3)O2)c(=O)[nH]c1=O (stereo partly drawn),299,54.6
CC1(C)O[C@H]([C@H]2COC(C)(C)O2)[C@@H](C2CC(=O)S[S+]2[O-])O1 (stereo partly drawn),18.2,12.6
Cc1cn([C@H]2C[C@H](O)[C@@H](C3CC(=O)S[S+]3[O-])O2)c(=O)[nH]c1=O (stereo partly drawn),119,29.7
O=C1CC(CCc2ccccc2)[S+]([O-])S1 (stereo not drawn),68.4,24.8
CC(C)(C)[Si](C)(C)O[C@@H]1[C@H](O[Si](C)(C)C(C)(C)C)[C@@H](C2CC(=O)S[S+]2[O-])O[C@H]1n1ccc(=O)[nH]c1=O (stereo partly drawn),3.68,2.67
